Measured values: ChEMBL document CHEMBL1687706, “Inhibition of human immunodeficiency virus type 1 replication in human cells by Debio-025, a novel cyclophilin binding agent” (Antimicrob Agents Chemother, 2008)
The source made the active and inactive calls. The rule behind the calls is not given here.

Assays:
Rattus norvegicus [1] = assay: Immunosuppressive activity in Sprague-Dawley rat […] model assessed as percent T lymphocytes at 10 mg/kg, po administered once daily for 28 days by flow cytometry; format: functional
Rattus norvegicus [2] = assay: Immunosuppressive activity in Sprague-Dawley rat […] model assessed as IgM level at 10 mg/kg, po administered once daily for 28 days by ELISA; format: functional
[3] = test system: Human immunodeficiency virus 1; conditions: Human immunodeficiency virus 1, 3B
Rattus norvegicus [4] = assay: Immunosuppressive activity in Sprague-Dawley rat […] model assessed as percent T-helper cells at 10 mg/kg, po administered once daily for 28 days by flow cytometry; format: functional
Rattus norvegicus [5] = assay: Immunosuppressive activity in Sprague-Dawley rat KHL model assessed as percent cytotoxic T cells at 10 mg/kg, po administered once daily for 28 days by flow cytometry; format: functional, T-cell
Coxsackievirus = assay: Antiviral activity against Coxsackie B3 infected in african green monkey Vero cells assessed as inhibition of viral replication; format: functional, organism-based
Influenza A virus [6] = assay: Antiviral activity against Influenza A virus H1N1 infected in MDCK cells assessed as inhibition of viral replication; format: functional, organism-based
Influenza A virus [7] = assay: Antiviral activity against Influenza A virus H3N2 infected in MDCK cells assessed as inhibition of viral replication; format: functional, organism-based
Influenza B virus = assay: Antiviral activity against influenza B virus infected in MDCK cells assessed as inhibition of viral replication; format: functional, organism-based
[8] = test system: Vesicular stomatitis virus; assay: Antiviral activity against VSV infected in human embryonic lung cells assessed as inhibition of viral replication; format: functional, organism-based
SARS-CoV = assay: Antiviral activity against SARS coronavirus infected in african green monkey Vero cells assessed as inhibition of viral replication; format: functional, organism-based; conditions: Severe acute respiratory syndrome-related coronavirus
Feline coronavirus = assay: Antiviral activity against Feline coronavirus infected in CRFK assessed as inhibition of viral replication; format: functional, organism-based; conditions: Alphacoronavirus 1, CRFK
Hepatitis C virus = assay: Antiviral activity against HCV infected in human Huh 5.2 cells assessed as reduction in viral RNA level by luciferase reporter gene assay; format: functional, organism-based, Hepacivirus hominis; conditions: Huh-5-2
[9] = test system: Bovine viral diarrhea virus 1; assay: Antiviral activity against BVDV infected in […] cells assessed as inhibition of viral replication; format: functional, organism-based; conditions: Bovine viral diarrhea virus isolates and strains
Yellow fever virus = assay: Antiviral activity against Yellow fever virus 17D infected in african green monkey Vero cells assessed as inhibition of viral replication; format: functional, cell-based
Human alphaherpesvirus 1 [10] = assay: Antiviral activity against Herpes simplex virus 1 KOS infected in human embryonic lung cells assessed as inhibition of viral replication; format: functional, organism-based; conditions: Human alphaherpesvirus 1, KOS
Human alphaherpesvirus 1 [11] = assay: Antiviral activity against Herpes simplex virus 1 F infected in human embryonic lung cells assessed as inhibition of viral replication; format: functional, organism-based; conditions: Human alphaherpesvirus 1, strain F
Human alphaherpesvirus 1 [12] = assay: Antiviral activity against Herpes simplex virus 1 McIntyre infected in human embryonic lung cells assessed as inhibition of viral replication; format: functional, organism-based; conditions: Human alphaherpesvirus 1, McIntyre
Human alphaherpesvirus 2 [13] = assay: Antiviral activity against Herpes simplex virus 2 G infected in human embryonic lung cells assessed as inhibition of viral replication; format: functional, organism-based; conditions: Human alphaherpesvirus 2, strain G
Human alphaherpesvirus 2 [14] = assay: Antiviral activity against Herpes simplex virus 2 196 infected in human embryonic lung cells assessed as inhibition of viral replication; format: functional, organism-based; conditions: Human alphaherpesvirus 2, 196, lung
Human alphaherpesvirus 2 [15] = assay: Antiviral activity against Herpes simplex virus 2 Lyons infected in human embryonic lung cells assessed as inhibition of viral replication; format: functional, organism-based; conditions: Human alphaherpesvirus 2, Lyons
Human alphaherpesvirus 3 = assay: Antiviral activity against VZV OKA infected in human embryonic lung cells assessed as inhibition of; format: functional, organism-based; conditions: Human alphaherpesvirus 3, OKA
Human betaherpesvirus 5 [16] = assay: Antiviral activity against Human cytomegalovirus AD169 infected in human embryonic lung cells assessed as reduction in viral yield; format: functional, organism-based; conditions: Human betaherpesvirus 5, AD169, lung
Human betaherpesvirus 5 [17] = assay: Antiviral activity against Human cytomegalovirus Davis infected in human embryonic lung cells assessed as reduction in viral yield; format: functional, organism-based; conditions: Human betaherpesvirus 5, Davis
Vaccinia virus = assay: Antiviral activity against Vaccinia virus infected in human embryonic lung cells assessed as reduction in viral yield measured after 3 days; format: functional, organism-based; conditions: Orthopoxvirus vaccinia, 72 h
[18] = test system: Human papillomavirus type 16; assay: Antiviral activity against HPV-16 infected in Caski cells assessed as inhibition of viral replication after 3 days; format: functional, organism-based, Human papillomavirus 16; conditions: Human papillomavirus 16, Ca-Ski, 72 h
[19] = test system: Human papillomavirus type 16; assay: Antiviral activity against HPV-16 infected in Caski cells assessed as inhibition of viral replication after 7 days; format: functional, Human papillomavirus 16
[20] = test system: Human immunodeficiency virus 1; assay: microbe, parasite or virus in culture; conditions: Human immunodeficiency virus 1, SF2
[21] = test system: Human immunodeficiency virus 1; assay: microbe, parasite or virus in culture; conditions: Human immunodeficiency virus 1, 3B, MT4
[22] = test system: Human respiratory syncytial virus; assay: Antiviral activity against RSV infected in human HeLa cells assessed as inhibition of viral replication
Jurkat = assay: Immunosuppressive activity in human Jurkat cells assessed as inhibition of PHA-phorbol myristate acetate induced beta-galactosidase activity at 6.75 uM; format: functional, cell-based
PBMC = assay: Cytotoxicity against human PBMC at 0.83 uM by MTT assay; format: cell-based
MT4 = assay: Cytotoxicity against human MT4 cells at 0.83 uM by MTT assay; format: cell-based; conditions: mt4, 0.83 µM

SMILES: C/C=C/C[C@@H](C)[C@@H](O)[C@H]1C(=O)N[C@@H](CC)C(=O)N(C)CC(=O)N(C)[C@@H](CC(C)C)C(=O)N[C@@H](C(C)C)C(=O)N(C)[C@@H](CC(C)C)C(=O)N[C@@H](C)C(=O)N[C@H](C)C(=O)N(C)[C@@H](CC(C)C)C(=O)N(C)[C@@H](CC(C)C)C(=O)N(C)[C@@H](C(C)C)C(=O)N1C [CYCLOSPORINE]
- Activity (Rattus norvegicus [1]): 33.6%
- deltaA (Rattus norvegicus [2]): 0.18
- IC50 [3]: 450 nM
- Activity (Rattus norvegicus [4]): 23.1%
- Activity (Rattus norvegicus [5]): 9.2%
- IC50 (Coxsackievirus): > 25 µM
- IC50 (Influenza A virus [6]): > 14.8 µM
- IC50 (Influenza A virus [7]): > 14.8 µM
- IC50 (Influenza B virus): > 14.8 µM
- IC50 [8]: > 8.3 µM
- IC50 (SARS-CoV): > 8.3 µM
- IC50 (Feline coronavirus): 1500 nM
- IC50 (Hepatitis C virus): 2300 nM
- IC50 [9]: > 9.9 µM
- IC50 (Yellow fever virus): > 16.6 µM
- IC50 (Human alphaherpesvirus 1 [10]): > 8.3 µM
- IC50 (Human alphaherpesvirus 1 [11]): > 8.3 µM
- IC50 (Human alphaherpesvirus 1 [12]): > 8.3 µM
- IC50 (Human alphaherpesvirus 2 [13]): > 8.3 µM
- IC50 (Human alphaherpesvirus 2 [14]): > 8.3 µM
- IC50 (Human alphaherpesvirus 2 [15]): > 8.3 µM
- IC50 (Human alphaherpesvirus 3): 3.3 µM
- IC50 (Human betaherpesvirus 5 [16]): > 18.3 µM
- IC50 (Human betaherpesvirus 5 [17]): > 18.3 µM
- IC50 (Vaccinia virus): > 8.3 µM
- IC50 [18]: 400 nM
- TC50 [19]: 0.3 µM
- IC50 [20]: 540 nM
- IC50 [21]: > 830 nM
- IC50 [22]: > 8.3 µM

SMILES: C/C=C/C[C@@H](C)[C@@H](O)[C@H]1C(=O)N[C@@H](CC)C(=O)N(C)CC(=O)N(C)[C@@H]([C@@H](C)CC)C(=O)N[C@@H](C(C)C)C(=O)N(C)[C@@H](CC(C)C)C(=O)N[C@@H](C)C(=O)N[C@H](C)C(=O)N(C)[C@@H](CC(C)C)C(=O)N(C)[C@@H](CC(C)C)C(=O)N(C)[C@@H](C(C)C)C(=O)N1C [NIM811]
- inhibition (Jurkat): Active
- Activity (PBMC): Non-toxic
- Activity (MT4): Non-toxic
- IC50 [3]: 470 nM
- IC50 [20]: 500 nM
- IC50 [21]: 310 nM
